Assay results taken from patent US20160368953A1, “BACTERIOCIN WITH NOVEL ACTIVITY” (The United States of America, as represented by the …, priority 2015, published 2016).

Assays:
Streptococcus mutans = test: agar diffusion method, zones of inhibition; type: cell-based; design: key to Growth Inhibitory Activity: +++ represents very strong growth inhibition; ++ represents strong growth inhibition; + represents mild growth inhibition; − represents no growth inhibition
Experimental: (§1) Bacteriocin activity is measured using an agar diffusion method (see, Gilbreth & Somkuti (2005)). Cultures of S. thermophilus strain 110 (NRRL B59671) and S. thermophilus strain LMD-9 are grown at 37° C. to an OD660 between 0.8 and 1.0 in 10 ml tryptone-yeast extract medium (Somkuti & Steinberg 1986) formulated with lactose (TYL) or glucose (TYG), or M17 medium (Becton Dickinson Co., Sparks, Md.) formulated with glucose (M17G) or lactose (M17L). Cells are pelleted by high-speed centrifugation for collection of cell-free supernatants (CFS). CFS (˜50 μl) are loaded into precast wells in an agar medium seeded with the target bacteria (0.5% v/v). Bacterial targets included: S. thermophilus strain ST113 in TYL, P. acidilactici in MRS (Becton Dickinson Co., Sparks, Md.), and L. innocua in BHI (Beckton Dickinson Co., Sparks, Md.). Plates are allowed to equilibrate overnight at 4° C., and then are incubated at 37° C. for 8 hours and are examined for the appearance of zones of inhibition.
(§2) S. thermophilus strain 110 (NRRL B59671) are grown overnight in tryptone-yeast extract-lactose (TYL) medium. The overnight culture is diluted in fresh TYL medium and grown for 7 or 24 hours. At each time point, a 1 ml sample is collected. Bacterial cells are removed from the 1 ml samples by centrifugation; and the cell free supernatants (CFS) are tested for antimicrobial activity using an agar diffusion method (see Gilbreth and Somkuti (2005) and Example 2 supra). Target agar plates are prepared by inoculating molten microbiological medium with the overnight growth of susceptible bacteria (0.5% v/v; 250 μl of culture into 50 ml of medium). The inoculated molten agar is poured into square dishes and left to harden at room temperature (approximately 10 minutes). Wells are made in the solidified agar plates using a sterile glass Pasteur pipette, and each well is filled with 50 μl of CFS samples. The agar plates are stored overnight at 4° C. to allow for diffusion of the CFS into the agar medium. The agar plates with loaded wells are then incubated at 37° C. to allow for growth of the target bacterium. The agar plates are monitored for growth of the target bacterium (agar medium becomes turbid), and the presence of clear zones around wells. […] Furthermore, antimicrobial activity is shown to be associated with a low-molecular weight peptide based on gel electrophoretic analysis (Gilbreth & Somkuti 2005). Agar diffusion assays are repeated a minimum of three times.

Streptococcus pyogenes = test: agar diffusion method, zones of inhibition; type: cell-based; design: key to Growth Inhibitory Activity: +++ represents very strong growth inhibition; ++ represents strong growth inhibition; + represents mild growth inhibition; − represents no growth inhibition
Experimental: as §1, §2

Propionibacterium acnes = test: agar diffusion method, zones of inhibition; type: cell-based; design: key to Growth Inhibitory Activity: +++ represents very strong growth inhibition; ++ represents strong growth inhibition; + represents mild growth inhibition; − represents no growth inhibition
Experimental: S. thermophilus strain 110 (NRRL B59671) are grown overnight in tryptone-yeast extract-lactose (TYL) medium. The overnight culture is diluted in fresh TYL medium and grown for 7 or 24 hours. At each time point, a 1 ml sample is collected. Bacterial cells are removed from the 1 ml samples by centrifugation; and the cell free supernatants (CFS) are tested for antimicrobial activity using an agar diffusion method (see Gilbreth and Somkuti (2005) and Example 2 supra). Target agar plates are prepared by inoculating molten microbiological medium with the overnight growth of susceptible bacteria (0.5% v/v; 250 μl of culture into 50 ml of medium). The inoculated molten agar is poured into square dishes and left to harden at room temperature (approximately 10 minutes). Wells are made in the solidified agar plates using a sterile glass Pasteur pipette, and each well is filled with 50 μl of CFS samples. The agar plates are stored overnight at 4° C. to allow for diffusion of the CFS into the agar medium. The agar plates with loaded wells are then incubated at 37° C. to allow for growth of the target bacterium. The agar plates are monitored for growth of the target bacterium (agar medium becomes turbid), and the presence of clear zones around wells. […]

[1] = tested on: Lactobacillus acidophilus; test: agar diffusion method, zones of inhibition; type: cell-based; design: key: +++ represents very strong growth inhibition; ++ represents strong growth inhibition; + represents mild growth inhibition; − represents no growth inhibition; conditions: 50 μl CFS of S. thermophilus strain 110 grown in TYL, 7 h and 24 h samples identical; target in MRS
Experimental: as §2

Streptococcus agalactiae = test: agar diffusion method, zones of inhibition; type: cell-based; design: key: +++ represents very strong growth inhibition; ++ represents strong growth inhibition; + represents mild growth inhibition; − represents no growth inhibition; conditions: 50 μl CFS of S. thermophilus strain 110 grown in TYL, 7 h and 24 h samples identical; target in TYL
Experimental: as §2

[2] = tested on: Streptococcus dysgalactiae; test: agar diffusion method, zones of inhibition; type: cell-based; design: key: +++ represents very strong growth inhibition; ++ represents strong growth inhibition; + represents mild growth inhibition; − represents no growth inhibition; conditions: 50 μl CFS of S. thermophilus strain 110 grown in TYL, 7 h and 24 h samples identical; target in TYL
Experimental: as §2

Streptococcus uberus = test: agar diffusion method, zones of inhibition; type: cell-based; design: key: +++ represents very strong growth inhibition; ++ represents strong growth inhibition; + represents mild growth inhibition; − represents no growth inhibition; conditions: 50 μl CFS of S. thermophilus strain 110 grown in TYL, 7 h and 24 h samples identical; target in TYL
Experimental: as §2

Listeria innocua = test: agar diffusion method, zones of inhibition; type: cell-based; design: key: +++ represents very strong growth inhibition; ++ represents strong growth inhibition; + represents mild growth inhibition; − represents no growth inhibition; conditions: 50 μl CFS of S. thermophilus strain 110 grown in TYL, 7 h and 24 h samples identical; target in BHI
Experimental: as §1
(§3) S. thermophilus strain 110 (NRRL B59671) are grown overnight in tryptone-yeast extract-lactose (TYL) medium. The overnight culture is diluted in fresh TYL medium and grown for 7 or 24 hours. At each time point, a 1 ml sample is collected. […] The agar plates are monitored for growth of the target bacterium (agar medium becomes turbid), and the presence of clear zones around wells. […]

Pediococcus acidilactici [3] = test: agar diffusion method, zones of inhibition; type: cell-based; design: key: +++ represents very strong growth inhibition; ++ represents strong growth inhibition; + represents mild growth inhibition; − represents no growth inhibition; conditions: 50 μl CFS of S. thermophilus strain 110 grown in TYL, 7 h and 24 h samples identical; target in MRS
Experimental: as §1, §3

Pediococcus acidilactici [4] = test: antimicrobial activity of recombinant BlpU, SDS-PAGE gel overlay method; type: cell-based; conditions: expressed in E. coli BL21 pGEX-6P-1/blpU; before or after Factor Xa cleavage of the GST tag; FIG. 6
From the text: The nucleic acid sequence (162 base pairs; SEQ ID NO: 37) corresponding to the mature BlpU peptide (not including the 23 amino acid leader peptide) is amplified from the S. thermophilus strain 110 (NRRL-B59671) chromosome by PCR with the primers: forward: […] (BamHI—recognition site underlined; nucleotides encoding the Factor Xa recognition sequence (isoleucine-glutamic acid-glycine-arginine) are italicized) (SEQ ID NO: 34) and reverse: […] (XhoI—recognition site underlined) (SEQ ID NO: 35). […] The DNA fragment is subsequently cloned into the pGEX 6P-1 plasmid (GE Healthcare Life Sciences, Piscataway, N.J.) at the BamHI and XhoI sites. The resulting plasmid (pGEX 6P-1/blpU) encodes for a fusion protein with the glutathione S transferase (GST) tag on the N-terminus of BlpU, and expression is under control of an isopropyl β-D-1-thiogalactopyranoside (IPTG) inducible promoter. The plasmid is transformed into E. coli strain BL21 for recombinant expression of the fusion protein. […] The eluent from the dialysis bag is recovered and analyzed by SDS-PAGE for the presence of a ˜31 kDa fusion protein. […] The cleaved product is analyzed by SDS-PAGE for the presence of BlpU (silver nitrate staining) and antimicrobial activity against Pediococcus acidilactici (gel overlay method; Gilbreth and Somkuti, 2005).

Pediococcus acidilactici [5] = conditions: Gilbreth and Somkuti (2005); positive control; cited from earlier work
[6] = 50 μl CFS of S. thermophilus strain 110 grown in TYL, 7 h and 24 h samples identical, target in BHI

With “thermophilin 110: mature bacteriocin produced by S. thermophilus strain 110, amino acids 24-76 of SEQ ID NO: 1 (SEQ ID NO: 36), about 5 kDa (GCSWGGFAKQGVATGVGNGLRLGIKTRTWQGAVAGAAGGAIVGGVGYGATCWW; listed as Streptococcus thermophilus)” the “Growth Inhibitory Activity” value (Streptococcus mutans; 50 μl CFS of S. thermophilus strain 110 grown in TYL, 7 h and 24 h samples identical, target in Todd Hewitt) was “++”, the “growth inhibitory activity against S. mutans (in words)” value (Streptococcus mutans; text summary of Table 4) was “strong growth inhibitory activity” and the “Growth Inhibitory Activity” value (Streptococcus pyogenes; [6]) was “+++”. The “growth inhibitory activity against S. pyogenes (in words)” value (Streptococcus pyogenes; text summary of Table 4) was “very strong growth inhibitory activity”, the “Growth Inhibitory Activity” value (Propionibacterium acnes; [6]) was “++” and the “growth inhibitory activity against P. acnes (in words)” value (Propionibacterium acnes; text summary of Table 4) was “strong growth inhibitory activity”. For the same substance, the “Growth Inhibitory Activity” value [1] was “+++”, the “Growth Inhibitory Activity” value (Streptococcus agalactiae) was “−” and the “Growth Inhibitory Activity” value [2] was “−”. The “Growth Inhibitory Activity” value (Streptococcus uberus) was “+”, the “Growth Inhibitory Activity” value (Listeria innocua) was “+” and the “Growth Inhibitory Activity” value (Pediococcus acidilactici [3]) was “+++”. For the same substance, the “antimicrobial activity against P. acidilactici” value (Pediococcus acidilactici [4]) was “inhibition zone” and the “zones of inhibition against P. acidilactici in prior studies” value (Pediococcus acidilactici [5]) was “very strong zones of inhibition”.
